Measured values: EP2966448B1, “METHOD FOR THE PREDICTION OR PROGNOSIS OF THE RESPONSE OF A HUMAN SUBJECT SUFFERING FROM CANCER TO TREATMENT WITH AN ANTAGONIST OF THE NK1 RECEPTOR” (priority 2013, dated 2014)
Read-outs that look alike come from different tables or passages of the source.

Experiments:
Gastric carcinoma = assay: Inhibition of primary tumor cell cultures (48 hours) vs NK1 receptor immunostaining (Example 1); assay type: cell-based; settings: Homo sapiens, 1 micromolar, read-out: Percentage of inhibition of cell cultures
Method: (§1) Cell cultures. To obtain tumor cells from human primary tumors we used the method described in De Bari et al. (De Bari et al. 2001). Briefly, small pieces of the tumors were digested into a hyaluronidase solution (Sigma-Aldrich, USA) at a concentration of 1 mg/ml during 15 minutes at 37°C, and then they were treated with 6 mg/ml of collagenase type IV (Invitrogen) during 2 hours at 37°C. Consecutively, cells were washed, and resuspended in the DMEM culture medium with high concentration of glucose (Dulbecco's Modified Eagle's Medium, Invitrogen) supplemented with 1% of antibiotics-antimycotics (Invitrogen) and with 1% of sodium pyruvate (Invitrogen), and the cells were seeded in culture slides at a concentration of 10.000 cells per square centimeter. When cells reached confluence, the adherent cells were separated using sterile trypsin at 0,5% (Invitrogen) and they were used among passages 3 and 9. For the assays shown next, tumor cells were seeded on slides at a concentration of 25.000 cells per well. A total of 6 wells containing the tumor cells were used as survival control. […] All the cultures were kept during 48 hours and later on recollected for their analysis.
(§2) Immunohistochemistry techniques. The presence of NK1 receptors was also analyzed using immunohistochemistry techniques. Briefly, a sample of each of the cultures of the cell lines used in the present invention, was centrifuged (5 minutes at 1.500 rpm) and the pellet obtained was dehydrated using increasing concentrations of ethanol and, finally, xylol. Then, said dehydrated samples were embedded in paraffin, creating a block of cells. Such paraffin blocks were cut with a microtome at 5 microns thickness, and were placed on microscope slides adequate to perform immunohistochemistry techniques. Consecutively, they were de-paraffinized by immersing them in xylol, to be finally hydrated using a solution containing decreasing concentrations of ethanol, and finally submerged them into water. […] After this, the samples were left to cool down at room temperature for 10 minutes. The endogenous peroxidase activity was blocked with 3% peroxide of hydrogen for 30 minutes at room temperature. After washing the samples with 0.05 M of Tris buffer, they were incubated with 10% non-immune pork serum at for 30 minutes at room temperature. To analyze the expression of NK1 receptors, the cellular samples were incubated in the presence of anti-NK1 antibodies (S8305, Sigma-Aldrich) diluted 1:1000, overnight at 4°C. Afterwards, the samples were washed in Tris buffer 0.05 M at room temperature. The next step was the addition of Envision System-HRP (Dako) reagents for 30 minutes at room temperature. Then, the samples were washed again in Tris buffer 0.05 M and the immunoreactivity was visualized through light microscopy with a chromogenic solution containing 3,3'-Diaminobenzidine (DAB+; Dako, USA). To differentiate the cell nuclei, they were slightly stained with hematoxylin. As negative control, it was used samples not incubated with the primary antibody anti-NK1, which was replaced by non-immune serum. All the samples were evaluated.
(§3) To value the immunostaining in each of the cases six cuts were performed to be analyzed by the immunohistochemistry technique. In each of the six cuts, it was counted cells in 20 fields (magnification 400x) using an Olympus microscope (model CX31). In each field it was counted the total number of cells and the number of cells presenting immunostaining, calculating afterwards the percentage of cells which presented immunostaining.

Endometrium carcinoma = assay: cells; settings: Homo sapiens, 1 micromolar
Method: as §1, §2, §3

Renal cell carcinoma = assay: Inhibition of primary tumor cell cultures (48 hours) vs NK1 receptor immunostaining (Example 1); assay type: cell-based; settings: Homo sapiens, 1 micromolar, read-out: Percentage of inhibition of cell cultures
Method: as §1, §2, §3

[1] = system: Lung carcinoma (non small cell type); assay: as above; assay type: cell-based; settings: Homo sapiens, 1 micromolar, read-out: Percentage of inhibition of cell cultures
Method: as §1, §2, §3

[2] = system: Breast carcinoma (ductal adenocarcinoma); assay: Inhibition of primary tumor cell cultures vs Kras mutation (Example 2); assay type: cell-based, human; settings: Breast carcinoma (ductal adenocarcinoma), 100 micromolar
Method: Cell cultures. […] Briefly, small pieces of the tumors were digested into a hyaluronidase solution (Sigma-Aldrich, USA) at a concentration of 1 mg/ml during 15 minutes at 37°C, and then they were treated with 6 mg/ml of collagenase type IV (Invitrogen) during 2 hours at 37°C. Consecutively, cells were washed, and resuspended in the DMEM culture medium with high concentration of glucose (Dulbecco's Modified Eagle's Medium, Invitrogen) supplemented with 1% of antibiotics-antimycotics (Invitrogen) and with 1% of sodium pyruvate (Invitrogen), and the cells were seeded in culture slides at a concentration of 10.000 cells per square centimeter. When cells reached confluence, the adherent cells were separated using sterile trypsin at 0,5% (Invitrogen) and they were used among passages 3 and 9. For the assays shown next, tumor cells were seeded on slides at a concentration of 25.000 cells per well. A total of 6 wells containing the tumor cells were used as survival control. […] All the cultures were kept during 48 hours and later on recollected for their analysis.
(§4) In each case the presence or not of mutations in K-ras gene was determined.
(§5) To determine the existence of mutations in the K-ras gene DNA from cancer tumor cells was extracted from samples obtained from the different cancer tumor cells, using DNA extraction kits from Takara (Madison, WI, US) or Ambion (Huntingdon, Cambridgeshire, United Kingdom), following the manufacturer's instructions, and as it has been previously published (Di Fiore F, et al. 2007). Consecutively it was analyzed by sequencing the exon 2 of the KRAS gene, , by means of PCR amplification from previously extracted cancer tumor DNA, using the following sense primer (SEQ ID NO. 15): 5'-[sequence]-3' and anti-sense primer (SEQ ID NO. 16): 5'-[sequence]-3'. After the purification using the Qiagen extraction kit, the PCR products were sequenced using the Big Dye Terminator Kit V3.1 (Applied Biosystems, Foster City, CA, U.S.) and an ABI Prism 377 or 3100 DNA sequencer (Applied Biosystems). The presence of a heterozygous mutation in the KRAS gene in cancer tumor cells of the cultures was defined as the appearance of a mutant peak of a height of at least a third of the wild type. All the sequence analysis were executed at least twice in two independent PCR.
(§6) The antibody against NK1 receptor (Table 16) was used at 1/50 concentration. The percentages of inhibition are expressed in percentage of variation in relation to control ± standard deviation.

[3] = system: Renal cell carcinoma (clear cell renal cell carcinoma); assay: as above; assay type: cell-based, human; settings: Renal cell carcinoma (clear cell renal cell carcinoma), 100 micromolar
Method: as §1, §4, §5, §6

Hodgkin lymphoma = assay: Inhibition of primary tumor cell cultures (48 hours) vs NK1 receptor immunostaining (Example 1); assay type: cell-based; settings: Homo sapiens, 1 micromolar, read-out: Percentage of inhibition of cell cultures
Method: as §1, §2, §3

Burkitt Lymphoma = assay: Inhibition of primary tumor cell cultures vs Kras mutation (Example 2); assay type: cell-based, human; settings: Burkitt Lymphoma, 100 micromolar
Method: as §1, §4, §5, §6

Prostate carcinoma = assay: as above; assay type: cell-based, human; settings: Prostate carcinoma, 100 micromolar
Method: as §1, §4, §5
The percentages of inhibition are expressed in percentage of variation in relation to control ± standard deviation.

[4] = system: human primary tumor cells; assay: Inhibition of primary tumor cell cultures vs low or high expression of the truncated form of NK1 receptor (Example 5; tumor type per table line); assay type: cell-based; settings: for Percentage of inhibition of cell cultures: 100 micromolar
Method: as §1
The presence of the truncated form of NK1 receptor was determined and then cells were cultured in presence of several antagonists of the NK1 receptor.
In each case the presence of the truncated form of the NK1 receptor was determined.
To determine the presence of the truncated form of the gene of NK1 receptor PCR technique was performed (Polymerase Chain Reaction). The extraction of RNA, amplifications of PCR, cycle conditions and quantitative analysis were executed as it has been previously described. The specific primers were the following: For the full-length NK1R receptor (NM_001058.3; forward (SEQ ID NO: 17)-: 5'-[sequence]-3 ' and reverse- (SEQ ID NO:18): 5'-[sequence]-3') and for the truncated NK1receptor (NM_015727.2; forward (SEQ ID NO: 19): 5'-[sequence]-3 and reverse (SEQ ID NO;20): 5'-[sequence]-3').
Cases were distributed in two groups: • Group A -low expression of the truncated form of NK1 receptor- for those cases wherein the expression of the truncated form of NK1 receptor was less than double the expression of the full length form of such receptor. • Group B -high expression of the truncated form of NK1 receptor- for those cases wherein the expression of the truncated form of the NK1 receptor was higher than double the expression of the full length form of such receptor.
The percentages of inhibition are expressed in percentage of variation in relation to the control ± standard deviation.

[5] = system: Thyroid carcinoma (papillary type); assay: Inhibition of primary tumor cell cultures (48 hours) vs NK1 receptor immunostaining (Example 1); assay type: cell-based; settings: Homo sapiens, 1 micromolar, read-out: Percentage of inhibition of cell cultures
[6] = NK1 receptor immunostaining Group 1 (less than 20% of the cells)
[7] = NK1 receptor immunostaining Group 2 (20-80% of the cells)
[8] = NK1 receptor immunostaining Group 3 (more than 80% of the cells)
[9] = NK1 receptor immunostaining Intensity grade 1
[10] = NK1 receptor immunostaining Intensity grade 2
[11] = NK1 receptor immunostaining Intensity grade 3
[12] = Cases with Kras non-mutated (wild type)

In the case of Cc1cc(F)ccc1[C@H]1CNCCN1C(=O)N(C)[C@H](C)c1cc(C(F)(F)F)cc(C(F)(F)F)c1 [Vestipitant], the inhibition at 1 µM (Gastric carcinoma; [6]) is reported as 11 ± 3%, the inhibition at 1 µM (Gastric carcinoma; [7]) is reported as 48 ± 3% and the inhibition at 1 µM (Gastric carcinoma; [8]) is reported as 92 ± 3%. It also gave an inhibition at 1 µM (Gastric carcinoma; [9]) of 19 ± 4%, an inhibition at 1 µM (Gastric carcinoma; [10]) of 49 ± 4% and an inhibition at 1 µM (Gastric carcinoma; [11]) of 92 ± 4%. For the same compound, the inhibition at 1 µM (Endometrium carcinoma; read-out: Percentage of inhibition of cell cultures, NK1 receptor immunostaining Group 1 (less than 20% of the cells)) was 15 ± 3%, the inhibition at 1 µM (Endometrium carcinoma; read-out: Percentage of inhibition of cell cultures, NK1 receptor immunostaining Group 2 (20-80% of the cells)) was 44 ± 3% and the inhibition at 1 µM (Endometrium carcinoma; read-out: Percentage of inhibition of cell cultures, NK1 receptor immunostaining Group 3 (more than 80% of the cells)) was 93 ± 6%. For the same compound, the inhibition at 1 µM (Endometrium carcinoma; read-out: Percentage of inhibition of cell cultures, NK1 receptor immunostaining Intensity grade 1) was 18 ± 2%, the inhibition at 1 µM (Endometrium carcinoma; read-out: Percentage of inhibition of cell cultures, NK1 receptor immunostaining Intensity grade 2) was 47 ± 4% and the inhibition at 1 µM (Endometrium carcinoma; read-out: Percentage of inhibition of cell cultures, NK1 receptor immunostaining Intensity grade 3) was 93 ± 5%. For the same compound, the inhibition at 1 µM (Renal cell carcinoma; [6]) was 10 ± 4%, the inhibition at 1 µM (Renal cell carcinoma; [7]) was 45 ± 3% and the inhibition at 1 µM (Renal cell carcinoma; [8]) was 93 ± 6%. It also gave an inhibition at 1 µM (Renal cell carcinoma; [9]) of 21 ± 3%, an inhibition at 1 µM (Renal cell carcinoma; [10]) of 46 ± 4% and an inhibition at 1 µM (Renal cell carcinoma; [11]) of 93 ± 4%. The inhibition at 1 µM [1, 6] was 15 ± 2%, the inhibition at 1 µM [1, 7] was 45 ± 2% and the inhibition at 1 µM [1, 8] was 93 ± 4%. The inhibition at 1 µM [1, 9] was 17 ± 2%, the inhibition at 1 µM [1, 10] was 49 ± 5% and the inhibition at 1 µM [1, 11] was 93 ± 5%. The “Percentage of inhibition of cell cultures” value ([2]; Cases with Kras mutated) was 26±4 percentage, the “Percentage of inhibition of cell cultures” value [2, 12] was 97±5 percentage and the “Percentage of inhibition of cell cultures” value ([3]; Cases with Kras mutated) was 25±5 percentage. For the same compound, the “Percentage of inhibition of cell cultures” value [3, 12] was 95±6 percentage, the inhibition at 1 µM (Hodgkin lymphoma; [6]) was 14 ± 3% and the inhibition at 1 µM (Hodgkin lymphoma; [7]) was 46 ± 3%. The inhibition at 1 µM (Hodgkin lymphoma; [8]) was 92 ± 5%, the inhibition at 1 µM (Hodgkin lymphoma; [9]) was 16 ± 4% and the inhibition at 1 µM (Hodgkin lymphoma; [10]) was 48 ± 3%. The inhibition at 1 µM (Hodgkin lymphoma; [11]) was 92 ± 4%, the “Percentage of inhibition of cell cultures” value (Burkitt Lymphoma; Cases with Kras mutated) was 24±3 percentage and the “Percentage of inhibition of cell cultures” value (Burkitt Lymphoma; [12]) was 95±3 percentage. For the same compound, the “Percentage of inhibition of cell cultures” value (Prostate carcinoma; Cases with Kras mutated) was 24±4 percentage, the “Percentage of inhibition of cell cultures” value (Prostate carcinoma; [12]) was 96±4 percentage and the “Percentage of inhibition of cell cultures” value ([4]; Glioma (astrocytoma), Cases with high expression of the truncated form of NK1 receptor (Group B)) was 94±5 percentage. For the same compound, the “Percentage of inhibition of cell cultures” value ([4]; Glioma (astrocytoma), Cases with low expression of the truncated form of NK1 receptor (Group A)) was 25±5 percentage, the “Percentage of inhibition of cell cultures” value ([4]; Lung carcinoma (non small cell lung carcinoma), Cases with high expression of the truncated form of NK1 receptor (Group B)) was 94±4 percentage and the “Percentage of inhibition of cell cultures” value ([4]; Lung carcinoma (non small cell lung carcinoma), Cases with low expression of the truncated form of NK1 receptor (Group A)) was 26±4 percentage. For the same compound, the “Percentage of inhibition of cell cultures” value ([4]; Melanoma (Nodular Melanoma), Cases with high expression of the truncated form of NK1 receptor (Group B)) was 96±4 percentage, the “Percentage of inhibition of cell cultures” value ([4]; Melanoma (Nodular Melanoma), Cases with low expression of the truncated form of NK1 receptor (Group A)) was 24±5 percentage and the “Percentage of inhibition of cell cultures” value ([4]; Non Hodgkin Lymphoma B (diffuse B cell lymphoma), Cases with high expression of the truncated form of NK1 receptor (Group B)) was 98±5 percentage. The “Percentage of inhibition of cell cultures” value ([4]; Non Hodgkin Lymphoma B (diffuse B cell lymphoma), Cases with low expression of the truncated form of NK1 receptor (Group A)) was 23±5 percentage, the “Percentage of inhibition of cell cultures” value ([4]; Non Hodgkin Lymphoma T (diffuse T cell lymphoma), Cases with high expression of the truncated form of NK1 receptor (Group B)) was 98±4 percentage and the “Percentage of inhibition of cell cultures” value ([4]; Non Hodgkin Lymphoma T (diffuse T cell lymphoma), Cases with low expression of the truncated form of NK1 receptor (Group A)) was 23±4 percentage. For the same compound, the “Percentage of inhibition of cell cultures” value ([4]; Prostate carcinoma, Cases with high expression of the truncated form of NK1 receptor (Group B)) was 95±6 percentage, the “Percentage of inhibition of cell cultures” value ([4]; Prostate carcinoma, Cases with low expression of the truncated form of NK1 receptor (Group A)) was 24±6 percentage and the “Percentage of inhibition of cell cultures” value ([4]; Thyroid carcinoma (follicular carcinoma), Cases with high expression of the truncated form of NK1 receptor (Group B)) was 95±5 percentage. The “Percentage of inhibition of cell cultures” value ([4]; Thyroid carcinoma (follicular carcinoma), Cases with low expression of the truncated form of NK1 receptor (Group A)) was 27±3 percentage, the “Percentage of inhibition of cell cultures” value ([4]; Thyroid carcinoma (papillary carcinoma), Cases with high expression of the truncated form of NK1 receptor (Group B)) was 96±6 percentage and the “Percentage of inhibition of cell cultures” value ([4]; Thyroid carcinoma (papillary carcinoma), Cases with low expression of the truncated form of NK1 receptor (Group A)) was 26±5 percentage. The “Percentage of inhibition of cell cultures” value ([4]; Undifferentiated Pleomorphic Sarcoma (malignant fibrous histiocytoma grade 3), Cases with high expression of the truncated form of NK1 receptor (Group B)) was 95±3 percentage, the “Percentage of inhibition of cell cultures” value ([4]; Undifferentiated Pleomorphic Sarcoma (malignant fibrous histiocytoma grade 3), Cases with low expression of the truncated form of NK1 receptor (Group A)) was 26±4 percentage and the “Percentage of inhibition of cell cultures” value ([4]; Urinary bladder carcinoma (transitional cell carcinoma), Cases with high expression of the truncated form of NK1 receptor (Group B)) was 94±5 percentage. For the same compound, the “Percentage of inhibition of cell cultures” value ([4]; Urinary bladder carcinoma (transitional cell carcinoma), Cases with low expression of the truncated form of NK1 receptor (Group A)) was 25±4 percentage, the “inhibition of cell proliferation” value ([4]; cancer cell cultures that show more expression of the truncated form of NK1 receptor, compared, non-peptidic antagonists 100 micromolar, antibody 1/50) was “higher inhibition” and the inhibition at 1 µM [5, 6] was 15 ± 3%. For the same compound, the inhibition at 1 µM [5, 7] was 47 ± 5% and the inhibition at 1 µM [5, 8] was 96 ± 4%.
